US20090192192A1, “INHIBITORS OF BIOFILM FORMATION OF GRAM-POSITIVE AND GRAM-NEGATIVE BACTERIA” (priority 2007, published 2009)

tested on: Pseudomonas aeruginosa PAO1; experiment: MBEC assay, biofilm formation of P. aeruginosa PAO1; assay type: cell-based; conditions: compound concentration 100 μM, class symbols
Description: The compound to be tested was dissolved in DMSO to obtain a concentration that was 100 times that of the final concentration required (1 mM for the 10 μM assay and 10 mM for the 100 μM assay). 1.5 μL of the above solution was placed into each well of a 96 well plate (final volume in each well=150 μL, final DMSO concentration of 1% (v/v)).
To grow the organism and form a biofilm, a cryogenic stock of the test organism (at −70° C.) was used. A first sub-culture was streaked out onto TSA (tryptic soy agar), upon which the plate was incubated at 35±2° C. for 24 hours and stored wrapped in parafilm at 4° C. afterwards. From this first sub-culture, a second sub-culture was streaked out onto TSA. The plate was incubated at 35±2° C. for 24 hours. The second sub-culture was used within 24 hours starting from the time it was first removed from incubation. Using the second sub-culture an inoculum in 3 mL sterile water that matches a 0.5 McFarland Standard (1.5×10^8 cells per mL) was created in a glass test tube using a sterile cotton swab. 2.2 mL of this solution was diluted in 22 mL 100% TSB (tryptic soy broth) medium to a cell density of approximately […]. The diluted organism was inverted 3-5 times to achieve uniform mixing of the organism. One sample (100 μl) of the diluted organism was used for an inoculum check by serially diluting and spot plating on TSA.
To prepare a challenge plate, […] of the diluted organism was added to each well of a 96 well plate except the sterility control wells. The test compounds were added to the wells to make up final concentrations of 10 μM and […] (1.5 μL/well) in the designated location in the test plate. 128.5 μL of 100% universal neutralizer (1% Tween 80 in Cation Adjusted Mueller Hinton Broth, CAMHB) was placed in each of the wells. 130 μL of media was added to the growth control wells. 128.5 μL of media+1.5 μL of DMSO were added to a second set of growth control wells. 150 μL of media was added to the sterility controls. Each sample was run in triplicate. The plate was covered by a lid with a peg per well and wrapped in parafilm and placed on a shaker in a humidified incubator (GeneVac) at 35±+2° C. for 24 hours set at 110 rpm.
Rinse plate(s) of 0.9% saline (200 μL per well) were prepared in a sterile 96 well microtitre plate. Lid-associated pegs were rinsed in 0.9% saline for approximately 1-2 minutes. The peg lid was transferred to the recovery media (1.0% Tween 80 in CAMHB) then sonicated for 30 minutes to dislodge surviving biofilm. Following sonication, 100 μL from each well of the 96 well plate was placed into the first 12 wells of the first row of a 96 well microtiter plate. 180 μl of 0.9% sterile saline was placed in the remaining rows. A serial dilution (10^0-10^7) was prepared by moving 20 μl down each of the 8 rows. 20 μl from each well was removed and spot plated on a prepared TSA. In the remaining recovery plate, 100 μl of fresh growth media (1.0% Tween 80 in CAMHB) was placed in each well to replace the amount removed. The recovery plate was covered with a regular lid and incubated at 35±2° C. for 24 hours and read visually to confirm antimicrobial activity of the test compounds.
The compounds of the present disclosure have been tested regarding their efficiency to inhibit biofilm formation of Staphylococcus aureus U of C#18 (MRSA), Staphylococcus aureus 456 (MRSA), Staphylococcus epidermidis RP62A, and Pseudomonas aeruginosa PAO1.

SMILES | inhibition at 100 µM
CCCCCCCCCCNC(=O)Nc1ccccc1F [Example 49, 1-decyl-3-(2-fluorophenyl)urea] | < 20%
COCCOCCOCC(=O)Nc1ccc(F)cc1C(F)(F)F [Example 126, N-(4-fluoro-2-(trifluoromethyl)phenyl)-2-(2-(2-methoxyethoxy)ethoxy)acetamide] | < 20%
CCCCCCCCOCCC(=O)N[C@@H](C)c1ccccc1 [Example 113, (S)-3-(octyloxy)-N-(1-phenylethyl)propanamide] | > 50%
CCCCCCCCOCCC(=O)Nc1nnc(-c2ccccc2)s1 [Example 118, 3-(octyloxy)-N-(5-phenyl-1,3,4-thiadiazol-2-yl)propanamide] | < 20%
CCCCCCCCCCNC(=O)N(C)c1cc(C(C)(C)C)nn1C [Example 69, 1-(3-tert-butyl-1-methylpyrazol-5-yl)-3-decyl-1-methylurea] | > 50%
CCCCCCCCCCCCCCCCNC(=O)Nc1cc(C(C)(C)C)nn1C [Example 91, 1-(3-tert-butyl-1-methylpyrazol-5-yl)-3-hexadecylurea] | 20 to 50%
CCCCCCNC(=O)Nc1cc(C2CC2)nn1C [Example 42, 1-(3-cyclopropyl-1-methylpyrazol-5-yl)-3-hexylurea] | 20 to 50%
CCCCCCCCCCCC(=O)N1CCCC(C(=O)NC)C1 (stereo not drawn) [Example 132, 1-dodecanoyl-N-methylpiperidine-3-carboxamide] | > 50%
CCCCCCCCCCCNC(=O)Nc1cc(C(C)(C)C)nn1C [Example 81, 1-(3-tert-butyl-1-methylpyrazol-5-yl)-3-undecylurea] | > 50%
CCCCCCCCCCCCCCNC(=O)Nc1cc(C(C)(C)C)nn1C [Example 88, 1-(3-tert-butyl-1-methylpyrazol-5-yl)-3-tetradecylurea] | > 50%
CCCCCCCCCC(=O)NCc1ccco1 [Example 29, N-(furan-2-ylmethyl)decanamide] | 20 to 50%
CCCCCCCCCCCC(=O)N(C)c1cccc(F)c1 [Example 18, N-(3-fluorophenyl)-N-methyldodecanamide] | > 50%
CCCCCCCCCOCC(=O)Nc1cc(C(C)(C)C)on1 [Example 109, N-(5-tert-butylisoxazol-3-yl)-2-(nonyloxy)acetamide] | 20 to 50%
CCCCCCCCCCCC(=O)N1CCC(C(N)=O)CC1 [Example 131, 1-dodecanoylpiperidine-4-carboxamide] | 20 to 50%
CCCCCCNC(=O)Nc1cc(C)nn1C [Example 41, 1-(1,3-dimethylpyrazol-5-yl)-3-hexylurea] | < 20%
CCCCCCCCCC(=O)N[C@H]1CCC[C@H]1C(=O)O (relative stereo) [Example 36, cis-2-decanamidocyclopentanecarboxylic acid] | < 20%
CCCCCCCCCCNC(=O)N(C)c1cccc(F)c1 [Example 52, 3-decyl-1-(3-fluorophenyl)-1-methylurea] | 20 to 50%
CCCCCCCCCCCC(=O)Nc1ccc(F)cc1C(F)(F)F [Example 24, N-(4-fluoro-2-(trifluoromethyl)phenyl)dodecanamide] | < 20%
CCCCCCCCCCNC(=O)N(C)c1ccc(F)cc1 [Example 54, 3-decyl-1-(4-fluorophenyl)-1-methylurea] | > 50%
CCCCCCCCCCNC(=O)Nc1cc(C2CC2)nn1C(C)=O [Example 67, 1-(1-acetyl-3-cyclopropylpyrazol-5-yl)-3-decylurea] | > 50%
CCCCCCCCCC(=O)NC(=O)N[C@@H](C)c1ccccc1 [Example 97, (S)-N-(1-phenylethylcarbamoyl)decanamide] | 20 to 50%
CCCCOCCOCC(=O)Nc1cc(C)ns1 [Example 123, 2-(2-butoxyethoxy)-N-(3-methylisothiazol-5-yl)acetamide] | < 20%
CCCCCCCCCOCC(=O)Nc1ccnn1CC [Example 105, N-(1-ethylpyrazol-5-yl)-2-(nonyloxy)acetamide] | > 50%

SMILES | inhibition at 100 µM
CCCCCCCCCCCC(=O)N1CCC(C(=O)Nc2ccc(F)cc2)C1 (stereo not drawn) [Example 152, 1-dodecanoyl-N-(4-fluorophenyl)pyrrolidine-3-carboxamide] | 20 to 50%
CCCCCCCCCCCC(=O)N1CCC(C(=O)NC)C1 (stereo not drawn) [Example 146, 1-dodecanoyl-N-methylpyrrolidine-3-carboxamide] | > 50%
CCCCCCCCCCCC(=O)N1CCCC(C(=O)NCC(C)C)C1 (stereo not drawn) [Example 134, 1-dodecanoyl-N-isobutylpiperidine-3-carboxamide] | 20 to 50%
CCCCCCCCCCNC(=O)Nc1ccccc1C(F)(F)F [Example 57, 1-decyl-3-(2-(trifluoromethyl)phenyl)urea] | 20 to 50%
CCCCCCCCCOCC(=O)N[C@H]1CCOC1=O [Example 111, N-(2-nonyloxyacetyl)-L-homoserinelactone] | < 20%
CCCCCCCCCCCC(=O)Nc1cccc(F)c1 [Example 17, N-(3-fluorophenyl)dodecanamide] | 20 to 50%
CCCCCCCCCCCC(=O)Nc1ccccc1 [Example 13, N-phenyldodecanamide] | < 20%
COCCOCCOCC(=O)Nc1cc(C)ns1 [Example 129, 2-(2-(2-methoxyethoxy)ethoxy)-N-(3-methylisothiazol-5-yl)acetamide] | < 20%
CCCCCCCCCCCC(=O)Nc1ccccc1F [Example 15, N-(2-fluorophenyl)dodecanamide] | < 20%
CCCCCCCCCOCC(=O)Nc1ccc(F)cc1C(F)(F)F [Example 103, N-(4-fluoro-2-(trifluoromethyl)phenyl)-2-(nonyloxy)acetamide] | 20 to 50%
CCCCCCCCCC(=O)NC(=O)Nc1ccnn1C [Example 99, N-(1-methylpyrazol-5-ylcarbamoyl)decanamide] | 20 to 50%
CCCCCCCCCCCC(=O)Nc1ccc(F)cc1 [Example 19, N-(4-fluorophenyl)dodecanamide] | < 20%
CCCCCCCCOCCC(=O)Nc1cc(C2CC2)nn1C [Example 115, N-(3-cyclopropyl-1-methylpyrazol-5-yl)-3-(octyloxy)propanamide] | > 50%
CCCCCCCCCCCC(=O)N1CCC(C(=O)Nc2cc(C)nn2C)C1 (stereo not drawn) [Example 153, N-(1,3-dimethylpyrazol-5-yl)-1-dodecanoylpyrrolidine-3-carboxamide] | > 50%
CCCCNC(=O)Nc1cc(C)nn1C [Example 38, 1-butyl-3-(1,3-dimethylpyrazol-5-yl)urea] | < 20%
CCCCCCCCOCCC(=O)N1CCCC(C(=O)N(CC)CC)C1 (stereo not drawn) [Example 137, N,N-diethyl-1-(3-(octyloxy)propanoyl)piperidine-3-carboxamide] | 20 to 50%
CCCCCCCCCCCC(=O)Nc1ccccc1S(=O)(=O)O [Example 27, 2-dodecanamidobenzenesulfonic acid] | 20 to 50%
CCN(CC)C(=O)C1CCCN(C(=O)CCCCCCN(C)CCN(C)C)C1 (stereo not drawn) [Example 139, 1-(7-((2-(dimethylamino)ethyl)(methyl)amino)heptanoyl)-N,N-diethylpiperidine-3-carboxamide] | < 20%
CCCCCCCCCOCC(=O)Nc1cc(C2CC2)nn1C [Example 106, N-(3-cyclopropyl-1-methylpyrazol-5-yl)-2-(nonyloxy)acetamide] | > 50%
CCCCCCCCCCCC(=O)N1CCCC(C(=O)NCC)C1 (stereo not drawn) [Example 133, 1-dodecanoyl-N-ethylpiperidine-3-carboxamide] | > 50%
CCCCCCCCOCCC(=O)Nc1cc(-c2ccccc2)nn1C [Example 117, N-(1-methyl-3-phenylpyrazol-5-yl)-3-(octyloxy)propanamide] | > 50%
CCCCCCCCCOCC(=O)N[C@@H](C)c1ccccc1 [Example 104, (S)-2-(nonyloxy)-N-(1-phenylethyl)acetamide] | > 50%
